Tests used:
SHP-1 = molecular target: T1, SHP-1 (Homo sapiens, UniProt P29350); test: PTP Enzyme Assay (DiFMUP), SHP-1; assay type: biochemical; conditions: 20 λM DiFMUP; read-out: IC50 value in respect of SHP-1
T1 construct: using the catalytic core of a human recombinant PTP as the enzyme
T1 sequence (P29350 244-515 limits assumed): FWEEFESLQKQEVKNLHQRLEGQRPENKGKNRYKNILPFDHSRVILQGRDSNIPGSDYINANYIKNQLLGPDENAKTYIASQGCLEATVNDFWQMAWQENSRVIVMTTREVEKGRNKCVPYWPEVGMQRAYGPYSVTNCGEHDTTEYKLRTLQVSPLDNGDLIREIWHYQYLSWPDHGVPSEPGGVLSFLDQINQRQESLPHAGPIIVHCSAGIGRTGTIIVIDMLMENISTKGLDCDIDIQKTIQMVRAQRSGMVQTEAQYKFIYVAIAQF
Procedure: (§1) The PTP Enzyme Assay aims at determining the extent of inhibition of PTPs, e.g. of PTP1B, SHP-1, SHP-2 or GLEPP-1 in the presence of a test compound of formula (I). The inhibition is illustrated by IC50 values which denote the concentration of test compound necessary to achieve an inhibition of 50% of said PTP's using the following concentration of the PTP substrate DiFMUP: • 5 μM DiFMUP for PTP1B; • 20 […] DiFMUP for SHP-1 and SHP-2; • 30 μM DiFMUP for GLEPP-1. a) PTPs Cloning […]
(§2) Assays were performed in a 96 well plate format, using the catalytic core of a human recombinant PTP as the enzyme and 6,8-DiFluoro-4-MethylUmbelliferyl Phosphate (DiFMUP, Molecular Probes, D-6567) as a substrate. […] The reaction ran for 30 minutes at room temperature before reading the fluorescence intensity (integral or intensity) on a Perkin-Elmer Victor 2 spectrofluorimeter (excitation of 6,8-difluoro-7-hydroxy coumarin is at 355 nm, the emission at 460 nm, for 0.1 s). The percentage of inhibition is determined by measuring the relative fluorescence ion absence of a test compound (PTP inhibitor), i.e. with the solvent alone (5% DMSO). The IC50 values for inhibition were determined in triplicates.

SHP-2 = molecular target: T2, SHP-2 (Homo sapiens, UniProt Q06124); test: PTP Enzyme Assay (DiFMUP), SHP-2; assay type: biochemical; conditions: 20 λM DiFMUP; read-out: IC50 value in respect of SHP-2
T2 construct: using the catalytic core of a human recombinant PTP as the enzyme
T2 sequence (Q06124 247-517 limits assumed): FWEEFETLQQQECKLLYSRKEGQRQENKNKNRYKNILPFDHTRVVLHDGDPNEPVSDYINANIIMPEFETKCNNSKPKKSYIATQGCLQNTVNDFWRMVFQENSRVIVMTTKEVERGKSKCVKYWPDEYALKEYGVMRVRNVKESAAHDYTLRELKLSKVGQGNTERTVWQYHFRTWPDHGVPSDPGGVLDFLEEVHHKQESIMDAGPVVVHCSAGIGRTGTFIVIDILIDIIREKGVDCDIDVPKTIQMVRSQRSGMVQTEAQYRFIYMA
Procedure: as §1, §2

GLEPP-1 = molecular target: T3, GLEPP-1 (Homo sapiens, UniProt Q16827); test: PTP Enzyme Assay (DiFMUP), GLEPP-1; assay type: biochemical; conditions: 30 μM DiFMUP; read-out: IC50 value in respect of GLEPP-1
T3 construct: using the catalytic core of a human recombinant PTP as the enzyme
T3 sequence (Q16827 938-1195 limits assumed): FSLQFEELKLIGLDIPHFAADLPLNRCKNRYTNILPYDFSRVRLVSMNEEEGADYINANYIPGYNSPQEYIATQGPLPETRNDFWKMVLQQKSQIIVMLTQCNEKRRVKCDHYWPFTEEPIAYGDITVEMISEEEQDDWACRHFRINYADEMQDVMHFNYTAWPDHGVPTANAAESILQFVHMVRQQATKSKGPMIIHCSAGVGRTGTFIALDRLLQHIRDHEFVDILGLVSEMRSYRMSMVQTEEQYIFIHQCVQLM
Procedure: as §1, §2

PTP1B = molecular target: T4, PTP1B (Homo sapiens, UniProt P18031); test: PTP Enzyme Assay (DiFMUP), PTP1B; assay type: biochemical; conditions: 5 μM DiFMUP; read-out: IC50 value in respect of PTP1B
T4 construct: The cloning and expression of the catalytic domain of PTPIB, may be performed as described in J. Biol. Chem. 2000; made in house
T4 sequence (P18031 3-277 limits assumed): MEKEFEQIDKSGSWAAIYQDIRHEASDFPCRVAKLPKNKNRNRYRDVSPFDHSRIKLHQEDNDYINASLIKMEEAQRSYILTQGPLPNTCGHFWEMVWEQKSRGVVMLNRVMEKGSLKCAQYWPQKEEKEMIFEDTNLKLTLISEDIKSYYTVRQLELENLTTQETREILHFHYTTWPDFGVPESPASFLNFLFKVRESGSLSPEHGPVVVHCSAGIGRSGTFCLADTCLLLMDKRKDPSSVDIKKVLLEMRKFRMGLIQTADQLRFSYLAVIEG
Procedure: The PTP Enzyme Assay aims at determining the extent of inhibition of PTPs, e.g. of PTP1B, SHP-1, SHP-2 or GLEPP-1 in the presence of a test compound of formula (I). The inhibition is illustrated by IC50 values which denote the concentration of test compound necessary to achieve an inhibition of 50% of said PTP's using the following concentration of the PTP substrate DiFMUP: • 5 μM DiFMUP for PTP1B; • 20 […] DiFMUP for SHP-1 and SHP-2; • 30 μM DiFMUP for GLEPP-1. a) PTPs Cloning
The cloning and expression of the catalytic domain of PTPIB, may be performed as described in J. Biol. Chem. 2000, 275(13), pp 9792-9796. […]
as §2

db/db mice = test: In vivo assay in db/db mice (postprandial glycemia); conditions: 4 hrs after drug administration
Procedure: The following assay aims at determining the anti-diabetic effect of the test compounds of formula (I) in a model of postprandial glycemia in db/db mice, in vivo.
A total of 24 db/db mice (about 8-9 weeks; obtained from IFFACREDO, l'Arbreste, France) were fasted during 20 hours.
4 groups, each consisting of 6 animals were formed:
Group 1: The animals were administered (per os) a dose of […] of vehicle.
Group 2: The animals were administered (per os) a dose of 20 mg/kg of the test compound according to formula (I).
Group 3: The animals were administered (per os) a dose of 100 mg/kg of the test compound according to formula (I).
Group 4: The animals were administered (per os) a dose of 200 mg/kg of the test compound according to formula (I).
After oral administration of the compounds of formula (I) solubilized or suspended in CarboxyMethylCellulose (0.5%), Tween 20 (0.25%) and water as vehicle, the animals had access to commercial food (D04, UAR, Villemoisson/Orge, France) ad libitum. The diabetic state of the mice was verified by determining the blood glucose level before drug administration. Blood glucose and serum insulin levels were then determined 4 hrs after drug administration.
The determination of the blood glucose level was performed using a glucometer (Precision Q.I.D., Medisense, Abbot, ref. 212.62.31).
The determination of the Insulin level was performed using an ELISA kit (Crystal CHEM, Ref. INSK R020).
Changes in blood glucose and serum insulin of drug treated mice were expressed as a percentage of control (group 1: vehicle treated mice).

[1] = Group 2: db/db mice, per os 20 mg/kg
[2] = Group 3: db/db mice, per os 100 mg/kg
[3] = Group 4: db/db mice, per os 200 mg/kg

| IC50 (SHP-1) [µM] | IC50 (SHP-2) [µM] | IC50 (GLEPP-1) [µM] | IC50 (PTP1B) [µM] | SMILES | Decrease in blood glucose (db/db mice; [1]) | Decrease in serum insulin (db/db mice; [1]) | Decrease in blood glucose (db/db mice; [2]) | Decrease in serum insulin (db/db mice; [2]) | Decrease in blood glucose (db/db mice; [3]) | Decrease in serum insulin (db/db mice; [3]) |
| --- | --- | --- | --- | --- | --- | --- | --- | --- | --- | --- |
| 1 | 1.4 | 0.5 |  | CCCCCCCCCCCCCCCNC(=O)c1ccc(CN(Cc2ccc(C(F)(F)F)cc2)C(=O)C(=O)O)cc1 [Example 4, oxo{{4-[(pentadecylamino)carbonyl]benzyl}[4-(trifluoromethyl)benzyl]amino}acetic acid] |  |  |  |  |  |  |
| 2.4 | 2.7 | 1.4 | 2.22 | CCCCCCCCCCCCNC(=O)c1ccc(CN(Cc2ccc(C(F)(F)F)cc2)C(=O)C(=O)O)cc1 [Example 10, {{4-[(dodecylamino)carbonyl]benzyl}[4-(trifluoromethyl)benzyl]amino}(oxo)acetic acid] | 17 percentage of control | −2 percentage of control | 42 percentage of control | 66 percentage of control | 48 percentage of control | 89 percentage of control |

— patent US7592477B2, “Substituted methylene amide derivatives as modulators of protein tyrosine phosphatases (PTPs)” (Laboratoires Serono SA, priority 2002, dated 2009)
